Measured values as given in ChEMBL document CHEMBL5528074 (J Med Chem, 2024).
Values belong to the compound of their own block, whether it stands above or below them. Calls of active or inactive are those of the source. The calls are words filed in the database; no cut-off is given here.

What was measured:
[1] = molecular target: T1, G-protein coupled receptor 183 (Homo sapiens, UniProt P32249)
Description: Antagonist activity at GPR183 (unknown origin) transfected in HEK293 cells incubated for 30 mins by Glosensor cAMP assay

[2] = molecular target: T1, G-protein coupled receptor 183; assay: Antagonist activity at GPR183 (unknown origin) incubated for 30 mins by calcium mobilization assay; format: functional
[3] = Metabolic stability in mouse liver microsomes assessed as intrinsic clearance; format: ADME, Microsome; conditions: read-out: CLH
[4] = Oral bioavailability in C57BL/6 mouse at 3 mg/kg measured upto 24 hrs by LC-MS/MS analysis; format: ADME, organism-based; conditions: in vivo
[5] = molecular target: T1, G-protein coupled receptor 183; assay: Antagonist activity at GPR183 (unknown origin) transfected in HEK293 cells co-expressing LgBiT-fused SmBiT-beta-arrestin assessed as reduction in beta-arrestin recruitment using nanoluciferase as substrate incubated for 30 mins by bioluminescence based NanoBiT assay; format: functional, cell-based
[6] = Apparent volume of distribution in C57BL/6 mouse at 1 mg/kg, iv measured upto 24 hrs by LC-MS/MS analysis; format: ADME, organism-based; conditions: in vivo, read-out: Vz
Mus musculus [7] = assay: Antiinflammatory activity against DSS-induced colitis C57BL/6 mouse model assessed as amelioration of colonic damage at 3 to 10 mg/kg, po by H and E staining based analysis; format: functional, organism-based; conditions: dose 3-10 mg/kg
[8] = Toxicity in C57BL/6 mouse assessed as effect on lung at 3 mg/kg, po by H and E staining based analysis; format: organism-based; conditions: in vivo
Mus musculus [9] = assay: Antiinflammatory activity against DSS-induced colitis C57BL/6 mouse model assessed as increase in CREB phosphorylation level at 3 to 10 mg/kg, po by immunohistochemical analysis; format: functional, organism-based; conditions: dose 3-10 mg/kg
Mus musculus [10] = assay: Antiinflammatory activity against DSS-induced colitis C57BL/6 mouse model assessed as amelioration of inflammatory response at 3 to 10 mg/kg, po by H and E staining based analysis; format: functional, organism-based; conditions: dose 3-10 mg/kg
[11] = Toxicity in C57BL/6 mouse assessed as effect on spleen at 3 mg/kg, po by H and E staining based analysis; format: organism-based; conditions: in vivo
[12] = Cmax in C57BL/6 mouse at 1 mg/kg, iv measured upto 24 hrs by LC-MS/MS analysis; format: ADME, organism-based; conditions: in vivo
[13] = AUC infinity in C57BL/6 mouse at 1 mg/kg, iv measured upto 24 hrs by LC-MS/MS analysis; format: ADME, organism-based; conditions: in vivo
[14] = Metabolic stability in monkey liver microsomes assessed as half life at 10 uM incubated for 60 mins in presence of NADPH/UDPGA by LC-MS/MS analysis; format: ADME, Macaca mulatta, Microsome; conditions: rhesus monkey, 1 h
U-937 [15] = assay: Antiinflammatory activity in human U-937 cells assessed as reversal of 7alpha,25-dihydroxycholesterol induced IL1B gene expression at 0.1 to 10 uM incubated for 24 hrs by qPCR analysis; format: functional, cell-based; conditions: dose 0.1-10 µM
U-937 [16] = assay: Antiinflammatory activity in human U-937 cells assessed as reversal of 7alpha,25-dihydroxycholesterol induced TNFA gene expression at 0.1 to 10 uM incubated for 24 hrs by qPCR analysis; format: functional, cell-based; conditions: dose 0.1-10 µM
[17] = Metabolic stability in mouse liver microsomes assessed as compound remaining at 1 uM incubated for 60 mins in presence of NADPH/UDPGA by LC-MS/MS analysis; format: ADME, Microsome; conditions: 1 h
[18] = Metabolic stability in human liver microsomes assessed as half life at 10 uM incubated for 60 mins in presence of NADPH/UDPGA by LC-MS/MS analysis; format: ADME, Microsome; conditions: 1 h
[19] = Metabolic stability in dog liver microsomes assessed as half life at 10 uM incubated for 60 mins in presence of NADPH/UDPGA by LC-MS/MS analysis; format: ADME, Canis lupus familiaris, Microsome
[20] = AUC infinity in C57BL/6 mouse at 3 mg/kg, po measured upto 24 hrs by LC-MS/MS analysis; format: ADME, organism-based; conditions: in vivo
[21] = Metabolic stability in monkey liver microsomes assessed as compound remaining at 1 uM incubated for 60 mins in presence of NADPH/UDPGA by LC-MS/MS analysis; format: ADME, Macaca mulatta, Microsome; conditions: rhesus monkey, 1 h
[22] = molecular target: T1, G-protein coupled receptor 183; assay: Antagonist activity at GPR183 (unknown origin) transfected in HEK293 cells cotransfected with CRE-luciferase plasmid assessed as restoration of luciferase activity preincubated for 30 mins followed by 7alpha,25-dihydroxycholesterol induction and measured after 4 hrs by dual luciferase assay; format: functional, cell-based
[23] = Toxicity in C57BL/6 mouse assessed as effect on heart at 3 mg/kg, po by H and E staining based analysis; format: organism-based; conditions: in vivo
[24] = Metabolic stability in human liver microsomes assessed as compound remaining at 1 uM incubated for 60 mins in presence of NADPH/UDPGA by LC-MS/MS analysis; format: ADME, Microsome; conditions: 1 h
[25] = Metabolic stability in mouse liver microsomes assessed as half life at 10 uM incubated for 60 mins in presence of NADPH/UDPGA by LC-MS/MS analysis; format: ADME, Microsome; conditions: 1 h
[26] = Metabolic stability in dog liver microsomes assessed as compound remaining at 1 uM incubated for 60 mins in presence of NADPH/UDPGA by LC-MS/MS analysis; format: ADME, Canis lupus familiaris, Microsome; conditions: read-out: Stability
[27] = Cmax in C57BL/6 mouse at 3 mg/kg, po measured upto 24 hrs by LC-MS/MS analysis; format: ADME, organism-based; conditions: in vivo
U-937 [28] = assay: Antimigratory activity against human U-937 cells assessed as inhibition of 7alpha,25-dihydroxycholesterol induced cell migration by CCK-8 method; format: functional, cell-based
[29] = molecular target: T1, G-protein coupled receptor 183; assay: Antagonist potency at GPR183 (unknown origin) transfected in HEK293 cells by schild plot analysis; format: cell-based; conditions: read-out: pA2 (converted)
[30] = Toxicity in C57BL/6 mouse assessed as effect on kidney at 3 mg/kg, po by H and E staining based analysis; format: organism-based; conditions: in vivo
[31] = Half life in C57BL/6 mouse at 1 mg/kg, iv measured upto 24 hrs by LC-MS/MS analysis; format: ADME, organism-based; conditions: in vivo
[32] = Metabolic stability in rat liver microsomes assessed as compound remaining at 1 uM incubated for 60 mins in presence of NADPH/UDPGA by LC-MS/MS analysis; format: ADME, Microsome; conditions: read-out: Stability
[33] = Toxicity in C57BL/6 mouse assessed as drug tolerance at 3 mg/kg, po by H and E staining based analysis; format: organism-based; conditions: in vivo
Mus musculus [34] = assay: Antiinflammatory activity against DSS-induced colitis C57BL/6 mouse model assessed as reduction in disease activity index (DAI) score at 3 mg/kg, po measured for 8 days; format: functional, organism-based; conditions: time 8.0 day
Mus musculus [35] = assay: Antiinflammatory activity against DSS-induced colitis C57BL/6 mouse model assessed as reduction in Il1-beta expression in colon at 3 to 10 mg/kg, po; format: functional, organism-based; conditions: dose 3-10 mg/kg
[36] = Toxicity in C57BL/6 mouse assessed as effect on liver at 3 mg/kg, po by H and E staining based analysis; format: organism-based; conditions: in vivo
U-937 [37] = assay: Cytotoxicity against human U-937 cells measured after 72 hrs by CCK8 method; format: functional, cell-based
[38] = molecular target: T1, G-protein coupled receptor 183; assay: Antagonist activity at GPR183 (unknown origin) transfected in HEK293 cells assessed as reversal of 7alpha,25-Dihydroxycholesterol induced cAMP reduction incubated for 30 mins by Glosensor cAMP assay; format: functional, cell-based
Mus musculus [39] = assay: Antiinflammatory activity against DSS-induced colitis C57BL/6 mouse model assessed as reduction in Tnf-alpha expression in colon at 3 to 10 mg/kg, po; format: functional, organism-based; conditions: dose 3-10 mg/kg
[40] = Half life in C57BL/6 mouse at 3 mg/kg, po measured upto 24 hrs by LC-MS/MS analysis; format: ADME, organism-based; conditions: in vivo
[41] = Clearance in C57BL/6 mouse at 1 mg/kg, iv measured upto 24 hrs by LC-MS/MS analysis; format: ADME, organism-based; conditions: in vivo
Mus musculus [42] = assay: Antiinflammatory activity against C57BL/6 mouse assessed as mitigation of DSS induced body weight loss administered as po measured for 10 days; format: functional, organism-based; conditions: dose 3-10 mg/kg, time 10.0 day
[43] = molecular target: T1, G-protein coupled receptor 183; assay: Agonist activity at GPR183 (unknown origin) transfected in HEK293 cells cotransfected with CRE-luciferase plasmid assessed as impairment of forskolin induced luciferase activity preincubated for 30 mins followed by forskolin induction and measured after 4 hrs by dual luciferase assay; format: functional, cell-based
[44] = molecular target: T1, G-protein coupled receptor 183; assay: Agonist activity at GPR183 (unknown origin) transfected in HEK293 cells assessed as reduction in forskolin induced cAMP generation incubated for 30 mins by Glosensor cAMP assay; format: functional, cell-based
[45] = molecular target: T1, G-protein coupled receptor 183; assay: Agonist activity at GPR183 (unknown origin) transfected in HEK293 cells co-expressing LgBiT-fused SmBiT-beta-arrestin assessed as beta-arrestin recruitment using nanoluciferase as substrate incubated for 30 mins by bioluminescence based NanoBiT assay; format: functional, cell-based

T1 sequence (P32249 whole entry): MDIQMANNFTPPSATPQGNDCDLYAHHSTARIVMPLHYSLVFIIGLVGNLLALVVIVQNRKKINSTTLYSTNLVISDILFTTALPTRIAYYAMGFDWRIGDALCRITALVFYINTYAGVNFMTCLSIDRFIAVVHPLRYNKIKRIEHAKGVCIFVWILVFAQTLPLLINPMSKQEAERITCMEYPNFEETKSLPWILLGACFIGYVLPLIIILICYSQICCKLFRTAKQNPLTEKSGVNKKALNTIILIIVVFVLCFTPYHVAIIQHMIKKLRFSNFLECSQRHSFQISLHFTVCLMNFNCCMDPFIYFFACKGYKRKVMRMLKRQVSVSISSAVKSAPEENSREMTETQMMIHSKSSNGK

IC50 [1]: > 10000 nM
SMILES: COc1ccc(C(=O)NC23CC(NC(=O)/C=C/c4ccc(Br)cc4)(C2)C3)cc1

IC50 [2]: 8.31 nM
SMILES: COc1cc(C(C)NC(=O)Cc2c(C)nc(C)[nH]c2=O)cc(OC)c1OC (stereo not given)

IC50 [2]: 13.9 nM
SMILES: COc1cc2c(cc1OC)CN(C(=O)NOCc1ccccc1)CC2

IC50 [1]: 54.9 nM
SMILES: CN(C)c1nc2ccc(C(=O)N3CCN(C(=O)/C=C/c4ccc(Br)cc4)CC3)cc2s1

IC50 [1]: 18.9 nM
SMILES: Cc1c[nH]c2cc(C(=O)N3CCN(C(=O)/C=C/c4ccc(Br)cc4)CC3)ccc12

microsomal CLint [3]: 301 µL/min/mg
SMILES: O=C(COc1ccc2ccccc2c1)N1CCN(C(=O)Cc2ccccc2)CC1

IC50 [1]: 8310 nM
SMILES: Nc1nc2ccc(C(=O)N3CCN(C(=O)/C=C/c4ccc(F)cc4F)CC3)cc2s1

IC50 [1]: 43.6 nM
SMILES: Nc1nc2ccc(C(=O)N3CCN(C(=O)/C=C/c4ccc5c(c4)OC(F)(F)O5)CC3)cc2s1

bioavailability [4]: 71.1%
IC50 [5]: 0.88 nM
Vd [6]: 1.21 L/kg
Cmax [12]: 828 ng/mL
AUC(0-inf) [13]: 1920 ng·h/mL
t1/2 [14]: 1.36 h
Stability [17]: 96.2%
t1/2 [18]: 2.52 h
half-life at 10 µM [19]: 6.42 h
AUC(0-inf) [20]: 4090 ng·h/mL
Stability [21]: 91.5%
IC50 [22]: 1.83 nM
Stability [24]: 98.4%
t1/2 [25]: 2.35 h
remaining at 1 h, 1 µM [26]: 96.5%
Cmax [27]: 817 ng/mL
IC50 [1]: 0.82 nM
IC50 (U-937 [28]): 0.73 nM
Kb [29]: 0.617 nM
half-life [31]: 1.61 h
remaining at 1 h, 1 µM [32]: 95.9%
IC50 [38]: 0.82 nM
half-life [40]: 2.24 h
clearance [41]: 8.72 mL/min/kg
SMILES: Nc1nc2ccc(C(=O)N3CCN(C(=O)/C=C/c4ccc(Br)cc4)CC3)cc2s1
Activity (Mus musculus [7]): Active
Activity [8]: Non-Toxic
Activity (Mus musculus [9]): Active
Activity (Mus musculus [10]): Active
Activity [11]: Non-Toxic
Activity (U-937 [15]): Active
Activity (U-937 [16]): Active
Activity [23]: Non-Toxic
Activity [30]: Non-Toxic
Activity [33]: Non-Toxic
Activity (Mus musculus [34]): Active
Activity (Mus musculus [35]): Active
Activity [36]: Non-Toxic
Activity (U-937 [37]): inactive
Activity (Mus musculus [39]): Active
Activity (Mus musculus [42]): Dose-Dependent Effect

IC50 [1]: > 10000 nM
SMILES: O=C(/C=C/c1ccc(Br)cc1)N1CCN(C(=O)c2ccc3[nH]c(=O)[nH]c3c2)CC1

IC50 [1]: 7.61 nM
SMILES: Cc1cc2ccc(C(=O)N3CCN(C(=O)/C=C/c4ccc(Br)cc4)CC3)cc2[nH]1

IC50 [1]: 54.2 nM
SMILES: COc1ccc(NC(=O)CC2CCN(C(=O)/C=C/c3ccc(Br)cc3)CC2(F)F)cc1 (stereo not given)

IC50 [1]: 15.9 nM
SMILES: Nc1nc2ccc(C(=O)N3CCN(C(=O)/C=C/c4ccc(Cl)cc4)CC3)cc2s1

IC50 [1]: 30.1 nM
SMILES: Nc1nc2ccc(C(=O)N3CCN(C(=O)/C=C/c4ccc(C(F)(F)F)cc4)CC3)cc2s1

IC50 [1]: > 10000 nM
SMILES: COc1ccc(C(=O)N2CC3CCC2CN3C(=O)/C=C/c2ccc(Br)cc2)cc1 (stereo not given)

IC50 [1]: > 10000 nM
SMILES: O=C(/C=C/c1ccc(Br)cc1)N1CCN(C(=O)c2ccc3nc(S)[nH]c3c2)CC1

IC50 [1]: 74.5 nM
SMILES: Nc1nc2ccc(C(=O)N3CCN(C(=O)/C=C/c4ccc(C(F)(F)F)c(Cl)c4)CC3)cc2s1

SMILES: C[C@H](CCCC(C)(C)O)[C@H]1CCC2C3C(CC[C@@]21C)[C@@]1(C)CC[C@H](O)CC1=C[C@H]3O (stereo not given in full)
EC50 [43]: 3.22 nM
Activity ([43]; filed as agonist, time 4.5 hrs): Dose-Dependent Effect
EC50 [44]: 0.15 nM
EC50 [45]: 4.63 nM
